Test system: SW1 melanoma cell
Experiment: Thapsigargin-induced death of SW1 cells, ATP content assay
Assay type: cell-based, human
Protocol: In addition to CSM14.1 cells, when tested at 25 μM, Compound 5962123 protected by >50% against thapsigargin-induced death of several tumor cell lines (HeLa human cervical cancer, SW1 melanoma cell, PPC1, human prostate cancer), mouse neural stem cell C17.2 (both differentiated [neuronal phenotype] and non-differentiated [stem cell phenotype]) as determined by ATP content assay, and primary rat cortical neurons as determined by microscopy assay measuring the percentage of NeuN-immunopositive cells with either normal or apoptotic nuclear morphology (Hoechst dye staining).
For PC12, cells were stimulated with 20 ng/ml NGF for five days; for C17.2, cells were stimulated with serum reduction, and 1% N2 incubation for three days; for CSM14.1, cells were cultured at 39° C. for 5-7 days.

`CCN(CC)c1ccc(C2Nc3ccccc3NC3=C2C(=O)CC(c2ccccc2)C3)cc1` (stereo not drawn) [Compound 5962123, 6-(4-diethylaminophenyl)-9-phenyl-5,6,8,9,10,11-hexahydrobenzo[c][1,5]benzodiazepin-7-one] was tested, and the “Protection against thapsigargin-induced death, SW1” value (25 μM, ATP content assay) was greater than 50%, the “Cytoprotective activity in thapsigargin-treated SW1” value (ATP content assay) was “demonstrated” and the “Cytoprotective activity, SW1 (Result)” value (thapsigargin 15 μM, ATP content, compound ≦25 μM) was “+ (+indicates >50% rescue of cell viability relative to untreated cells not exposed to thapsigargin at compound concentration of ≦25 μM)”.

Reference: US20080293699A1, “Inhibitors of thapsigargin-induced cell death” (priority 2007, published 2008)
